# Test: Binding affinity to GABAA receptor
# Parameters: unit not given here
row,logKi,Structure (SMILES)
1,-0.155,O=c1cc(-c2ccccc2)oc2c(Br)c(O)c(Br)c(O)c12
2,-0.678,O=c1cc(-c2ccccc2O)oc2ccccc12
3,0,COc1c(O)cc2oc(-c3ccc(O)cc3)cc(=O)c2c1O
4,0.903,O=c1cc(-c2ccccc2F)oc2cc(O)cc(O)c12
5,-0.699,COc1c(O)c(OC)c2oc(-c3ccccc3)cc(=O)c2c1O
6,-1.16,O=c1cc(-c2ccccc2)oc2ccc(Br)cc12
7,2.3,COc1cc2oc(-c3ccc(O)c(O)c3)cc(=O)c2c(O)c1OC
8,-0.066,COc1ccc2oc(-c3ccccc3)cc(=O)c2c1
9,-2.21,COc1c(O)c(OC)c2oc(-c3ccccc3O)cc(=O)c2c1O
10,0.653,O=c1cc(-c2ccccc2)oc2ccc(F)cc12
11,-0.785,O=c1cc(-c2ccccc2)oc2ccc(Cl)cc12
12,0.602,O=c1cc(-c2ccc(O)cc2)oc2cc(O)cc(O)c12
13,-1.12,O=c1cc(-c2ccccc2O)oc2cc(O)cc(O)c12
14,0.747,O=c1cc(-c2ccccc2)oc2cc(O)c(O)c(O)c12
15,-0.384,O=c1cc(-c2cccc(Br)c2)oc2ccccc12
16,-1.57,O=c1cc(-c2ccccc2O)oc2ccc3ccccc3c12
17,0.182,COc1c(O)cc(O)c2c(=O)cc(-c3ccccc3)oc12

row,logKi,Structure (SMILES)
1,1,Cc1cccc(-c2cc(=O)c3ccccc3o2)c1
2,-0.212,O=c1cc(-c2cccc(Cl)c2)oc2ccccc12
3,-0.051,COc1c(O)cc2oc(-c3ccccc3)cc(=O)c2c1O
4,1.36,COc1cc2oc(-c3ccc(O)cc3)cc(=O)c2c(O)c1OC
5,0.903,O=c1cc(-c2ccccc2Cl)oc2cc(O)cc(O)c12
6,0.55,O=c1cc(-c2cccc(F)c2)oc2ccccc12
7,1.7,COc1cc(O)c2c(=O)cc(-c3ccccc3)oc2c1
8,0.422,O=c1cc(-c2ccccc2)oc2ccc(O)cc12
9,-1.42,COc1c(O)cc2oc(-c3ccccc3O)cc(=O)c2c1O
10,0,O=c1cc(-c2ccccc2)oc2c(I)c(O)c(I)c(O)c12
11,0,O=c1cc(-c2ccccc2)oc2ccccc12
12,0.477,O=c1cc(-c2ccccc2)oc2cc(O)cc(O)c12
13,-1.47,O=c1cc(-c2ccccc2O)oc2ccc(O)cc12
14,0.623,O=c1cc(-c2ccccc2)oc2cc(O)ccc12
15,-0.561,O=c1cc(-c2ccccc2)oc2ccc([N+](=O)[O-])cc12
16,-0.252,O=c1cc(-c2ccccc2O)oc2cc(O)ccc12

# The remaining lines, values behind:
row,Structure (SMILES),logKi
1,O=c1cc(-c2cccc(F)c2)oc2ccc(Br)cc12,-1.38
2,Cc1ccc2oc(-c3cccc(Br)c3)cc(=O)c2c1,-1.89
3,O=c1cc(-c2cccc(Br)c2)oc2ccc([N+](=O)[O-])cc12,-1.6
4,O=c1cc(-c2cccc([N+](=O)[O-])c2)oc2ccc(F)cc12,-0.745
5,O=c1cc(-c2cccc(Br)c2)oc2ccc(Cl)cc12,-1.64
6,COc1ccc2oc(-c3cccc(Br)c3)cc(=O)c2c1,0
7,COc1cccc(-c2cc(=O)c3cc(F)ccc3o2)c1,0.398
8,O=c1cc(-c2cccc(O)c2)oc2ccc(Cl)cc12,-0.07
9,COc1ccccc1-c1cc(=O)c2ccccc2o1,1.51
10,Cc1ccc2oc(-c3cccc([N+](=O)[O-])c3)cc(=O)c2c1,-2.25
11,COc1ccccc1-c1cc(=O)c2cc(O)ccc2o1,0.976
12,Cc1cccc(-c2cc(=O)c3cc(Br)ccc3o2)c1,-0.812
13,O=c1cc(-c2ccc(Br)cc2)oc2ccc([N+](=O)[O-])cc12,-1.6
14,O=c1cc(-c2cccc([N+](=O)[O-])c2)oc2ccc([N+](=O)[O-])cc12,-1.58
15,COc1cccc(-c2cc(=O)c3ccccc3o2)c1,0.38
16,COc1ccc(-c2cc(=O)c3cc(Br)ccc3o2)cc1,0.322
17,Cc1cccc(-c2cc(=O)c3cc(C)ccc3o2)c1,-0.682
18,COc1ccc2oc(-c3ccccc3N)cc(=O)c2c1,0.544
19,O=c1cc(-c2cccc(O)c2)oc2ccc(F)cc12,0.4
20,O=c1cc(-c2cccc([N+](=O)[O-])c2)oc2ccccc12,-0.545
21,O=c1cc(-c2cccc(Cl)c2)oc2ccc(F)cc12,-0.701
22,O=c1cc(-c2cccc([N+](=O)[O-])c2)oc2ccc(Br)cc12,-3
23,O=c1cc(-c2ccccc2[N+](=O)[O-])oc2ccc(Br)cc12,-0.68

row,Structure (SMILES),logKi
1,O=c1cc(-c2ccccc2F)oc2ccc(Cl)cc12,-0.38
2,O=c1cc(-c2cccc([N+](=O)[O-])c2)oc2ccc(Cl)cc12,-2.1
3,COc1cccc(O)c1-c1cc(=O)c2c(O)c(OC)c(OC)c(OC)c2o1,-0.444
4,O=c1cc(-c2cccc(Br)c2)oc2ccc(F)cc12,-0.627
5,O=c1c(O)c(-c2ccc(O)cc2)oc2cc(O)cc(O)c12,1.97
6,O=c1cc(-c2cccc(Br)c2)oc2ccc(Br)cc12,-1.72
7,COc1cccc(-c2cc(=O)c3cc(Br)ccc3o2)c1,-0.215
8,O=c1cc(-c2ccc(F)cc2)oc2ccc(Cl)cc12,-0.742
9,O=c1cc(-c2cccc(O)c2)oc2ccc(Br)cc12,-0.22
10,O=c1cc(-c2cccc(Cl)c2)oc2ccc(Cl)cc12,-1.64
11,O=c1cc(-c2ccc(F)cc2)oc2ccc(Br)cc12,-0.939
12,Cc1ccc2oc(-c3ccccc3)cc(=O)c2c1,-0.903
13,O=c1cc(-c2cccc(Br)c2)oc2ccc(O)cc12,0
14,O=c1cc(-c2cccc(F)c2)oc2ccc(Cl)cc12,-0.932
15,O=c1cc(-c2ccc(F)cc2)oc2ccccc12,0.556
16,O=c1cc(-c2cccc(F)c2)oc2ccc(F)cc12,-0.036
17,O=c1cc(-c2ccc(F)cc2)oc2ccc(F)cc12,0.398
18,O=c1cc(-c2cccc(Cl)c2)oc2ccc(Br)cc12,-1.77
19,O=c1cc(-c2ccc([N+](=O)[O-])cc2)oc2ccc(Br)cc12,-0.699
20,O=c1cc(-c2ccccc2F)oc2ccc(Br)cc12,-0.424
21,COc1cccc(-c2cc(=O)c3cc(Cl)ccc3o2)c1,-0.072
22,COc1ccc(-c2cc(=O)c3cc(Cl)ccc3o2)cc1,0.097

# Reference: ChEMBL document CHEMBL1141675, “QSAR modeling of the interaction of flavonoids with GABA(A) receptor” (Eur J Med Chem, 2008)
